According to BigSolDB 2.1:

O=C(c1ccccc1)c1ccc(Cl)cc1
solubility (mole fraction)
Conditions	278.15 K	283.15 K	288.15 K	293.15 K	298.15 K	303.15 K	308.15 K	313.15 K	318.15 K	323.15 K
in acetone	0.0863	0.0934	0.116	0.146	0.181	0.224	0.277	0.342	0.454	0.615
in acetonitrile	0.0216	0.0258	0.0352	0.0438	0.0625	0.0858	0.131	0.19	0.307	0.616
in ethanol	0.00817	0.0103	0.0124	0.0151	0.0195	0.0239	0.0318	0.043	0.06	0.0856
in ethyl acetate	0.114	0.118	0.138	0.167	0.203	0.24	0.294	0.351	0.43	0.534
in isobutanol	0.0102	0.0113	0.0138	0.0173	0.0225	0.0305	0.0408	0.0549	0.0821	0.123
in isopropanol	0.00704	0.00886	0.0118	0.0153	0.0187	0.0223	0.0288	0.0398	0.0617	0.0896
in methanol	0.00549	0.00622	0.00802	0.00943	0.012	0.0149	0.0203	0.027	0.0384	0.0594
in methyl acetate	0.0971	0.109	0.134	0.164	0.196	0.239	0.289	0.354	0.417	0.494
in n-butanol	0.0271	0.0304	0.0347	0.0394	0.0436	0.0478	0.0531	0.0677	0.0993	0.211
in n-butyl acetate	0.133	0.142	0.156	0.182	0.212	0.248	0.285	0.329	0.383	0.454
in n-propanol	0.0111	0.0128	0.0163	0.0205	0.0247	0.0325	0.0424	0.0571	0.0829	0.135
